pKd: −log10 of the molar value. Where two headings read alike, the source gives them in different places.
Biological target: T1, fascin-1 (Homo sapiens, UniProt Q16658)
T1 construct: gene FSCN1; recombinant, E. coli BL21(DE3), pGEX-5X-2 GST fusion, GST cut off with thrombin; monomer
Experiment: isothermal titration calorimetry
Format: binding

Row | pKd (read-out: Kd) | Compound | Kd (50 mM Hepes pH 7.5, 150 mM NaCl, 25 °C, proposed site 2)
1 | ~5.30 | Cc1ccc2nc(-c3ccc(NCCOCCOCCOCCOCCOCCO)cc3)sc2c1 [BTA-EG6] | 
2 |  | O=C(Nc1nn(Cc2ccc(C(F)(F)F)cc2)c2ccccc12)c1ccco1 [G2] | Kd values of G2 to WT fascin-1 and seven fascin-1 mutant proteins
